≈ marks a conversion by molar mass, not a printed value.
System: Mycobacterium tuberculosis
Experiment: Antimycobacterial activity against isoniazid-resistant Mycobacterium tuberculosis by agar dilution method using double dilution technique
Assay type: functional

| Compound | MIC |
| --- | --- |
| O=S(=O)(c1ccc(NC(c2ccccc2)n2nc(COc3cccc4ccccc34)oc2=S)cc1)c1ccc(NC(c2ccccc2)n2nc(COc3cccc4ccccc34)oc2=S)cc1 (stereo not given) | 5.96 µM (≈ 5.61 µg/mL) |
| O=S(=O)(c1ccc(NC(c2ccccc2)n2nc(Cc3ccccc3)oc2=S)cc1)c1ccc(NC(c2ccccc2)n2nc(Cc3ccccc3)oc2=S)cc1 (stereo not given) | 5.98 µM (≈ 4.84 µg/mL) |
| O=S(=O)(c1ccc(NC(Cc2ccco2)n2nc(COc3ccc4ccccc4c3)oc2=S)cc1)c1ccc(NC(Cc2ccco2)n2nc(COc3ccc4ccccc4c3)oc2=S)cc1 (stereo not given) | 1.1 µM (≈ 1.04 µg/mL) |
| O=S(=O)(c1ccc(NC(Cc2ccco2)n2nc(COc3ccccc3)oc2=S)cc1)c1ccc(NC(Cc2ccco2)n2nc(COc3ccccc3)oc2=S)cc1 (stereo not given) | 1.14 µM (≈ 0.968 µg/mL) |
| O=[N+]([O-])c1ccc(-c2nn(C(Nc3ccc(S(=O)(=O)c4ccc(NC(c5ccccc5)n5nc(-c6ccc([N+](=O)[O-])cc6)oc5=S)cc4)cc3)c3ccccc3)c(=S)o2)cc1 (stereo not given) | 3.94 µM (≈ 3.43 µg/mL) |
| O=S(=O)(c1ccc(NC(c2ccccc2)n2nc(-c3ccc(Nc4ccccc4)cc3)oc2=S)cc1)c1ccc(NC(c2ccccc2)n2nc(-c3ccc(Nc4ccccc4)cc3)oc2=S)cc1 (stereo not given) | 4.65 µM (≈ 4.48 µg/mL) |
| O=[N+]([O-])c1ccc(-c2nn(C(Cc3ccco3)Nc3ccc(S(=O)(=O)c4ccc(NC(Cc5ccco5)n5nc(-c6ccc([N+](=O)[O-])cc6)oc5=S)cc4)cc3)c(=S)o2)cc1 (stereo not given) | 1.74 µM (≈ 1.53 µg/mL) |
| O=S(=O)(c1ccc(NC(Cc2ccco2)n2nc(-c3ccc(Nc4ccccc4)cc3)oc2=S)cc1)c1ccc(NC(Cc2ccco2)n2nc(-c3ccc(Nc4ccccc4)cc3)oc2=S)cc1 (stereo not given) | 1.86 µM (≈ 1.81 µg/mL) |
| O=S(=O)(c1ccc(NC(Cc2ccco2)n2nc(COc3cccc4ccccc34)oc2=S)cc1)c1ccc(NC(Cc2ccco2)n2nc(COc3cccc4ccccc34)oc2=S)cc1 (stereo not given) | 2.12 µM (≈ 2.01 µg/mL) |
| O=S(=O)(c1ccc(NC(Cc2ccco2)n2nc(Cc3ccccc3)oc2=S)cc1)c1ccc(NC(Cc2ccco2)n2nc(Cc3ccccc3)oc2=S)cc1 (stereo not given) | 3.24 µM (≈ 2.65 µg/mL) |
| O=S(=O)(c1ccc(NC(c2ccccc2)n2nc(-c3ccccc3)oc2=S)cc1)c1ccc(NC(c2ccccc2)n2nc(-c3ccccc3)oc2=S)cc1 (stereo not given) | 5.42 µM (≈ 4.23 µg/mL) |
| O=S(=O)(c1ccc(NC(c2ccccc2)n2nc(COc3ccccc3)oc2=S)cc1)c1ccc(NC(c2ccccc2)n2nc(COc3ccccc3)oc2=S)cc1 (stereo not given) | 4.98 µM (≈ 4.19 µg/mL) |
| O=S(=O)(c1ccc(NC(c2ccccc2)n2nc(COc3ccc4ccccc4c3)oc2=S)cc1)c1ccc(NC(c2ccccc2)n2nc(COc3ccc4ccccc4c3)oc2=S)cc1 (stereo not given) | 2.42 µM (≈ 2.28 µg/mL) |
| O=S(=O)(c1ccc(NC(Cc2ccco2)n2nc(-c3ccccc3)oc2=S)cc1)c1ccc(NC(Cc2ccco2)n2nc(-c3ccccc3)oc2=S)cc1 (stereo not given) | 2.24 µM (≈ 1.77 µg/mL) |
| NNC(=O)c1ccncc1 [ISONIAZID] | 11.4 µM (≈ 1.56 µg/mL) |

Source: ChEMBL document CHEMBL1148026, “Oxadiazole mannich bases: synthesis and antimycobacterial activity” (Bioorg Med Chem Lett, 2007)
